{"source": "the supplement of paper PMC10307832", "assay_in_all_cases": "relative viability (nuclei count vs DMSO), 5 days (fraction); higher = more cells survive", "key": {"[1]": {"compound": "O[C@@H](COc1cccc2ncccc12)CN1CCN([C@@H]2c3ccccc3[C@@H]3[C@H](c4ccccc42)C3(F)F)CC1 [Zosuquidar] + COc1cccc2cc(-c3nc([C@H]4CC[C@H](C(=O)O)CC4)n4ncnc(N)c34)[nH]c12 [OSI-027] (partner 0.5 µM)", "how_it_was_run": "(§1)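 Relative viability is defined as nuclei in treated wells over nuclei in vehicle wells. Duplicate plates were run and medians reported. Lung cancer cell lines in 1536-well plates were dosed by pin tool one day after seeding, with one drug or with a fixed anchor-drug dose plus five library-drug doses (not always all listed) in √10 steps, and nuclei were counted after 5 days.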"}, "[2]": {"compound": "C1=CC(=CC=C1NC(=S)NNC2=C(C=C(C=C2[N+](=O)[O-])C(F)(F)F)[N+](=O)[O-])F [Kobe2602] + CC(=O)c1c(C)c2cnc(Nc3ccc(N4CCNCC4)cn3)nc2n(C2CCCC2)c1=O [Palbociclib] (partner 0.5 µM)", "how_it_was_run": "as §1"}, "[3]": {"compound": "C1=CC(=CC=C1NC(=S)NNC2=C(C=C(C=C2[N+](=O)[O-])C(F)(F)F)[N+](=O)[O-])F [Kobe2602] + Nc1ncn([C@H]2C[C@H](O)[C@@H](CO)O2)c(=O)n1 [Decitabine] (partner 2 µM)", "how_it_was_run": "as §1"}, "[4]": {"compound": "C1=CC(=CC=C1NC(=S)NNC2=C(C=C(C=C2[N+](=O)[O-])C(F)(F)F)[N+](=O)[O-])F [Kobe2602] + CS(=O)(=O)CCNCc1ccc(-c2ccc3ncnc(Nc4ccc(OCc5cccc(F)c5)c(Cl)c4)c3c2)o1 [Lapatinib] (partner 2 µM)", "how_it_was_run": "as §1"}}}
{"cell line": "UMC-11", "values": [{"measurement": "relative viability", "setting": "[1]; first compound 0.01 µM", "value": 0.439}, {"measurement": "relative viability", "setting": "[1]; first compound 0.03162 µM", "value": 0.511}, {"measurement": "relative viability", "setting": "[1]; first compound 0.1 µM", "value": 0.462}, {"measurement": "relative viability", "setting": "[1]; first compound 0.3162 µM", "value": 0.483}, {"measurement": "relative viability", "setting": "[1]; first compound 1 µM", "value": 0.501}, {"measurement": "relative viability", "setting": "[2]; first compound 0.2 µM", "value": 0.356}, {"measurement": "relative viability", "setting": "[2]; first compound 0.6325 µM", "value": 0.331}, {"measurement": "relative viability", "setting": "[2]; first compound 2 µM", "value": 0.347}, {"measurement": "relative viability", "setting": "[2]; first compound 6.325 µM", "value": 0.343}, {"measurement": "relative viability", "setting": "[2]; first compound 20 µM", "value": 0.345}, {"measurement": "relative viability", "setting": "[3]; first compound 0.2 µM", "value": 0.564}, {"measurement": "relative viability", "setting": "[3]; first compound 0.6325 µM", "value": 0.622}, {"measurement": "relative viability", "setting": "[3]; first compound 2 µM", "value": 0.675}, {"measurement": "relative viability", "setting": "[3]; first compound 6.325 µM", "value": 0.466}, {"measurement": "relative viability", "setting": "[3]; first compound 20 µM", "value": 0.652}, {"measurement": "relative viability", "setting": "[4]; first compound 0.2 µM", "value": 0.696}, {"measurement": "relative viability", "setting": "[4]; first compound 0.6325 µM", "value": 1}, {"measurement": "relative viability", "setting": "[4]; first compound 2 µM", "value": 0.958}, {"measurement": "relative viability", "setting": "[4]; first compound 6.325 µM", "value": 1.07}, {"measurement": "relative viability", "setting": "[4]; first compound 20 µM", "value": 1.12}]}
